Results reported in ChEMBL document CHEMBL3507680, “University of Dundee, Gates Library screen for HepG2 cell viability”.

assay: Human HepG2 cell viability assay in 384 well format; type: toxicity, cell-based; parameters: dose 125 nL, time 70.5 hour; cytotoxicity at 70.5 h: concentration not given beside the values; conditions: HepG2 cells, read-out: Inhibition

| Structure (SMILES) | cytotoxicity at 70.5 h [%] |
| --- | --- |
| Cc1cnn(-c2cccc(N3CCCC3)n2)c1 | -1.27 |
| COc1cc(N(C)Cc2noc(CC(C)C)n2)ncn1 | 20.1 |
| CCC(C)C(=O)NCc1cccc(OCCN(C)C2CCOCC2)c1 (configuration not stated) | 16.4 |
| COCCc1ncc(CNC2(c3ccc(Cl)cc3)CC2)cn1 | 0.0528 |
| COc1ccc(CN2C[C@@H]3OCCN(CCN4CCCC4)[C@@H]3C2)cc1 | 11.2 |
| COc1c(CNCC(=O)N2CCN(C)CC2)c(C(C)C)nn1C | -5.29 |
| CC(C)N1CC2(CCC1=O)CCN(c1ccnc3ccccc13)CC2 | 41.8 |
| Fc1ccccc1CC1CCN(Cc2cscn2)CC1 | -4.53 |
| CN(C)CC(=O)N1CC2(CCN(Cc3ccccc3)C2)C1 | 35.2 |
| Cc1ncsc1CN(C)C(=O)CC1CCOc2ccccc21 (configuration not stated) | 22.4 |
| COc1cccc(CN2CCOC(c3cnccn3)C2)c1F (configuration not stated) | -8.48 |
| Cc1nc(-c2cc(C(=O)N3CCN(C)CC3)c3ccccn23)cn1C | -0.647 |
| CCn1cc(CN2CCCN(C(=O)C3(C#N)CCCCC3)CC2)cn1 | 17.8 |
| Cc1nc(C2(NCC(=O)NCc3cccs3)CCCCC2)no1 | -2.14 |
| CCOC(C)C(=O)N(C)C1CCN(c2ccc(OC)cc2)CC1 (configuration not stated) | -4.16 |
| CCn1nc(C)c(NC(=O)CN2CCC(c3ccccc3Cl)C2)c1C (configuration not stated) | 21.2 |
| CCc1cc(CNC(=O)NCC(c2ccco2)N2CCCC2)[nH]n1 (configuration not stated) | -3.15 |
| Fc1cccc(-n2nc(C3CC3)nc2CCn2cnnn2)c1 | -3.9 |
| Cn1cc(CN2CCCC23CCN(S(C)(=O)=O)CC3)cn1 | -2.11 |
| CCNC(=O)CN1CCC(c2cc(OC)cc(OC)c2)C1 (configuration not stated) | -10.7 |
| COc1cccc(C2CC(=O)Nc3c2c(=O)n(C)c2ncnn32)c1 (configuration not stated) | 16.7 |

| Structure (SMILES) | cytotoxicity at 70.5 h [%] |
| --- | --- |
| CCOc1ncccc1NC(=O)N1CCN(c2cccc(C)c2C)CC1 | 21.9 |
| CSc1ccsc1C(=O)NC(Cc1ccccc1)C(N)=O (configuration not stated) | -1.87 |
| c1ccc(Cc2noc(CN(Cc3cccs3)CC3CCCO3)n2)cc1 (configuration not stated) | -4.54 |
| O=C1CC(N2CCN(c3ccc(O)cc3)CC2)C(=O)N1Cc1cccs1 (configuration not stated) | -7.69 |
| N#CCCCS(=O)(=O)NC(=O)c1cccc(Cl)c1F | -2.7 |
| Cc1nc[nH]c1CN1CCCN(c2nc3ccccc3s2)CC1 | -2.7 |
| COCc1ccc(CNc2cnn(C(C)(C)C)c(=O)c2Cl)cc1 | 19.8 |
| CCOc1ccc(C(=O)CC(SC2CCCCC2)C(=O)O)cc1 (configuration not stated) | -6.29 |
| CC(Nc1ccc(C(F)(F)F)cc1C#N)c1cccc(S(N)(=O)=O)c1 (configuration not stated) | 9.79 |
| Cc1nc(CN2CC[C@@H]3O[C@@H](C(=O)N4CCOCC4)C[C@@H]32)cs1 | -9.93 |
| CNC(=O)CNC(=O)c1ccc(-c2scnc2C)nc1 | -0.926 |
| CC(=O)c1cccc(NC(=O)Cn2cc(I)cn2)c1 | -9.34 |
| Cc1cc(CN2CCN(C(=O)CCCc3nc(C(C)C)no3)CC2)on1 | -8.77 |
| Cc1cccc(C)c1-n1nnnc1C1(NCc2ccco2)CCCC1 | -6.25 |
| Cc1nnc(SC2CCN(c3sccc3C#N)C2=O)s1 (configuration not stated) | 24.5 |
| CNS(=O)(=O)c1ccc(CNC(=O)c2cccc(C)n2)cc1 | 16.9 |
| CCc1nc(C)c(CN2CCOC(CCCC(C)C)C2)[nH]1 (configuration not stated) | 27.1 |
| CC(Nc1nc2c(cnn2C)c(=O)[nH]1)c1ccc2c(c1)CCCC2 (configuration not stated) | -3.73 |
| CCCC(=O)NC1CCc2c(ccc(=O)n2Cc2csc(C)n2)C1 (configuration not stated) | -12.5 |
| COc1ccc(Cl)cc1CS(=O)(=O)Cc1nc(C)no1 | 15.2 |
| Cc1noc(C)c1CN1CCO[C@H]2CN(Cc3ccc(F)cc3)C[C@H]21 | 0.623 |

| Structure (SMILES) | cytotoxicity at 70.5 h [%] |
| --- | --- |
| COc1cc(Br)c(CNC(C)c2nnc3n2CCC3)cc1OC (configuration not stated) | 10.6 |
| CN1CCOC(CNCc2nc(-c3ccco3)no2)C1 (configuration not stated) | 2.27 |
| COC(=O)[C@H]1C[C@@H](O)CCN1S(=O)(=O)c1ccc(F)cc1F | 21.8 |
| CCN1C(=O)CC[C@]12CC[C@@H](NC(=O)c1cc(C)on1)CC2 | -7.54 |
| Cn1cc(NC(=O)CCCc2cccs2)c(=O)n(C)c1=O | 5.9 |
| CC(C)CCN1CCC2(CC1)CN(C(=O)c1cnccn1)CCO2 | 1.9 |
| Cc1cc(N2CCC(Cc3ncccn3)C2)ncn1 (configuration not stated) | -6.02 |
| Cc1ccc(C2COCCN2C(=O)c2ccc(CN(C)C)cc2)o1 (configuration not stated) | -6.21 |
| O=C1CN(c2ccc(CNC(=O)NCC3CCOC3)cc2)CCN1 (configuration not stated) | -5.59 |
| CS(=O)(=O)c1ccc(-c2nc(C(=O)N3CCCC3)n3ccccc23)cc1 | -8.24 |
| CCc1noc(C2CCCCN2C(=O)c2ccn(C3CCCC3)n2)n1 (configuration not stated) | 31 |
| Cc1cccc(C(=O)N2C[C@@H](C)[C@@]3(CCN(c4ccsc4)C3=O)C2)n1 | -16.4 |
| Cc1nc2c(c(=O)n1C)CN(C(=O)C1CCCN(C(N)=O)C1)C2 (configuration not stated) | -4.13 |
| O=C1CCC2(CCN(Cc3cc(F)ccc3Cl)CC2)CN1C1CCCC1 | 3.22 |
| COCCCC1(CO)CCCN(CCc2ccccn2)C1 (configuration not stated) | 0.702 |
| Cc1nc(C2CCCN(C(=O)c3cc(C)sc3C)C2)no1 (configuration not stated) | -2.35 |
| N[C@@H]1CCCN(C(=O)Cc2c[nH]c3ccccc23)[C@H]1c1ccccc1F | 23.2 |
| c1ccc(CCNC2CCc3ncnn3C2)nc1 (configuration not stated) | 3.59 |
| CCC(O)(CNCc1ncc[nH]1)c1ccc(Br)cc1 (configuration not stated) | -1.16 |
| COc1cc(CN2CCC(COCc3ccccc3)CC2)cc(OC)c1 | 19.3 |
| O=C1CCC2(CCN(CCSc3ccccc3)CC2)CN1CCCO | -1.81 |

| Structure (SMILES) | cytotoxicity at 70.5 h [%] |
| --- | --- |
| CC[C@@H](CO)Nc1cc(-c2cn[nH]c2)ncn1 | 3.42 |
| CNc1cc(C)nc(N2C[C@H](NC(=O)C3CCOCC3)[C@@H](C3CC3)C2)n1 | 1.67 |
| CCCc1nc(CNC(=O)Cc2cc(C)no2)cs1 | 19.8 |
| Cc1nc(O)cc(C2CCCN(Cc3c(Cl)cncc3Cl)C2)n1 (configuration not stated) | -8.65 |
| CCc1c(NCc2ccncc2)cnn1CC(C)C | -5.95 |
| Cc1ccnc(N2CCC(OCCN3CCCCC3)C2)n1 (configuration not stated) | -8.76 |
| CCOCC1CN(C(=O)Cc2ccccn2)Cc2cn(CC)nc21 (configuration not stated) | -8.43 |
| COc1ccc(CN2CCN(S(=O)(=O)c3cc(C(=O)O)cs3)CC2)cc1 | -18.9 |
| Cc1ccc(CN(C)C(=O)CN2CCCC2c2cnn(C)c2)cc1 (configuration not stated) | -6.75 |
| CC(C)N1CCC(Cc2cncc(-c3cccc(C(=O)O)c3)n2)CC1 | 10.8 |
| Cc1nccn1CCC(=O)N1CCCN(CCCc2ccccc2)CC1 | 1.37 |
| Cc1cc(C)n(C2CCCN(C(=O)CCc3nccs3)C2)n1 (configuration not stated) | 28.2 |
| Clc1cc(NCc2ncc[nH]2)nc2[nH]ccc12 | -6.45 |
| CN(C)c1ccc(CNC(=O)c2ccc(Cl)cc2F)cc1 | 3.13 |
| NCCC1CN(c2nc(-c3ccccc3)nc3c2CCNC3)CCO1 (configuration not stated) | 2.96 |
| CNC(=O)c1csc(-c2cccnc2)n1 | 2.96 |
| Cc1cc2ccncc2n1CC1(O)CCN(C(=O)c2ccccn2)CC1 | -1.41 |
| CCc1nc(N2CCN(c3ncccn3)CC2)c2cnn(C)c2n1 | -5.59 |
| Cc1cc(C)n(CC(=O)N2CCC(Nc3cccnn3)CC2)n1 | -5.61 |
